Results reported in PubChem BioAssay AID248 (DTP/NCI, 2004).
Where “and” joins values, the source holds several entries; their conditions need not be identical. Identical values can stand only once. Toxic doses and inconclusive results are not listed. Rule as the data show it: active = T/C of 150% or more; inactive = T/C below 125%. Peptide text beside a SMILES is read from it. * marks the point of attachment. ONp = O=[N+]([O-])c1ccc(O*)cc1; Tos = Cc1ccc(S(=O)(=O)*)cc1

Tested on: L1210 leukemia ip in BDF1 mice, survival T/C
Assay: NCI In Vivo Anticancer Drug Screen. Data for tumor model L1210 Leukemia (intraperitoneal) in B6D2F1 (BDF1) mice
Conditions: endpoint: mean survival time, higher = longer survival
Outline: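 Value reflects the ratio of survival in compound-treated mice to survival in vehicle-treated controls, with both groups carrying the same transplanted tumor.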

[1] = dose: 100.0 mg/kg/injection, schedule: Q04DX003 (ip), vehicle: saline
[2] = dose: 200.0 mg/kg/injection, schedule: Q04DX003 (ip), vehicle: saline
[3] = dose: 400.0 mg/kg/injection, schedule: Q04DX003 (ip), vehicle: saline
[4] = dose: 100.0 mg/kg/injection, schedule: Q01DX009 (ip), vehicle: saline with Tween-80
[5] = dose: 200.0 mg/kg/injection, schedule: Q01DX009 (ip), vehicle: saline with Tween-80
[6] = dose: 400.0 mg/kg/injection, schedule: Q01DX009 (ip), vehicle: saline with Tween-80
[7] = dose: 100.0 mg/kg/injection, schedule: Q01DX009 (ip), vehicle: Klucel (hydroxypropylcellulose) (HPC)
[8] = dose: 100.0 mg/kg/injection, schedule: Q04DX003 (ip), vehicle: Klucel (hydroxypropylcellulose) (HPC)
[9] = dose: 200.0 mg/kg/injection, schedule: Q01DX009 (ip), vehicle: Klucel (hydroxypropylcellulose) (HPC)
[10] = dose: 200.0 mg/kg/injection, schedule: Q04DX003 (ip), vehicle: Klucel (hydroxypropylcellulose) (HPC)
[11] = dose: 400.0 mg/kg/injection, schedule: Q01DX009 (ip), vehicle: Klucel (hydroxypropylcellulose) (HPC)
[12] = dose: 400.0 mg/kg/injection, schedule: Q04DX003 (ip), vehicle: Klucel (hydroxypropylcellulose) (HPC)
[13] = dose: 50.0 mg/kg/injection, schedule: Q01DX009 (ip), vehicle: Klucel (hydroxypropylcellulose) (HPC)
[14] = dose: 100.0 mg/kg/injection, schedule: Q01DX001 (ip), vehicle: Klucel (hydroxypropylcellulose) (HPC)
[15] = dose: 200.0 mg/kg/injection, schedule: Q01DX001 (ip), vehicle: Klucel (hydroxypropylcellulose) (HPC)
[16] = dose: 100.0 mg/kg/injection, schedule: Q01DX009 (ip), vehicle: saline sonified
[17] = dose: 200.0 mg/kg/injection, schedule: Q01DX009 (ip), vehicle: saline sonified
[18] = dose: 400.0 mg/kg/injection, schedule: Q01DX009 (ip), vehicle: saline sonified
[19] = dose: 100.0 mg/kg/injection, schedule: Q01DX009 (ip), vehicle: saline
[20] = dose: 200.0 mg/kg/injection, schedule: Q01DX009 (ip), vehicle: saline
[21] = dose: 400.0 mg/kg/injection, schedule: Q01DX009 (ip), vehicle: saline
[22] = dose: 100.0 mg/kg/injection, schedule: Q04DX003 (ip), vehicle: saline with Tween-80
[23] = dose: 200.0 mg/kg/injection, schedule: Q04DX003 (ip), vehicle: saline with Tween-80
[24] = dose: 400.0 mg/kg/injection, schedule: Q04DX003 (ip), vehicle: saline with Tween-80
[25] = dose: 100.0 mg/kg/injection, schedule: Q01DX001 (ip), vehicle: saline
[26] = dose: 200.0 mg/kg/injection, schedule: Q01DX001 (ip), vehicle: saline
[27] = dose: 400.0 mg/kg/injection, schedule: Q01DX001 (ip), vehicle: saline

Measured: T/C

O=C1OC(=C(Br)Br)C2C3C=CC(CC3)C12 (stereo unspecified)
inactive: [1] 95 % of control | [2] 98 % of control | [3] 98 % of control

O=C(CCl)Nc1cc2ccccc2c2ccccc12
inactive: dose: 75.0 mg/kg/injection, schedule: Q01DX001 (ip), vehicle: saline 88 % of control | dose: 150.0 mg/kg/injection, schedule: Q01DX001 (ip), vehicle: saline 91 % of control | dose: 300.0 mg/kg/injection, schedule: Q01DX001 (ip), vehicle: saline 96 % of control

O=C(O)c1cc([N+](=O)[O-])ccc1O
inactive: dose: 100.0 mg/kg/injection, schedule: Q01DX001 (ip), vehicle: carboxymethylcellulose (CMC) 95 % of control | dose: 100.0 mg/kg/injection, schedule: Q04DX002 (ip), vehicle: saline 101 % of control | dose: 200.0 mg/kg/injection, schedule: Q01DX001 (ip), vehicle: carboxymethylcellulose (CMC) 95 % of control | dose: 200.0 mg/kg/injection, schedule: Q04DX002 (ip), vehicle: saline 101 % of control | dose: 400.0 mg/kg/injection, schedule: Q04DX002 (ip), vehicle: saline 101 % of control

COC(=O)[C@@H]1C2C=CC(C2)[C@@H]1C(=O)OC
inactive: [4] 101 % of control | [5] 104 % of control | [6] 104 % of control

O=c1[nH][nH]c(=O)c2ccccc12
inactive: dose: 50.0 mg/kg/injection, schedule: Q01DX001 (ip), vehicle: other 103 % of control | dose: 100.0 mg/kg/injection, schedule: Q01DX001 (ip), vehicle: other 103 % of control | [7] 111 % of control and 116 % of control | [8] 108 % of control | dose: 200.0 mg/kg/injection, schedule: Q01DX001 (ip), vehicle: other 100 % of control | [9] 106 % of control and 105 % of control | [10] 110 % of control | dose: 400.0 mg/kg/injection, schedule: Q01DX001 (ip), vehicle: other 103 % of control | [11] 100 % of control | [12] 104 % of control

Cc1cc2no[n+]([O-])c2cc1C
inactive: [13] 108 % of control | [14] 100 % of control | [7] 106 % of control | [15] 96 % of control | [9] 114 % of control

C=CC12CCCCC1C(=C)C(=O)OC2 (stereo unspecified)
inactive: dose: 12.5 mg/kg/injection, schedule: Q04DX002 (ip), vehicle: saline with Tween-80 92 % of control | dose: 25.0 mg/kg/injection, schedule: Q04DX002 (ip), vehicle: saline with Tween-80 99 % of control | dose: 50.0 mg/kg/injection, schedule: Q04DX002 (ip), vehicle: saline with Tween-80 96 % of control

CC(CCl)OC(=O)CCO (stereo unspecified)
inactive: dose: 55.0 mg/kg/injection, schedule: Q01DX Z (ip), vehicle: methylcellulose (MC) 104 % of control | dose: 83.0 mg/kg/injection, schedule: Q01DX Z (ip), vehicle: methylcellulose (MC) 100 % of control | dose: 125.0 mg/kg/injection, schedule: Q01DX Z (ip), vehicle: methylcellulose (MC) 89 % of control

COc1ccc2c(c1C)CCC1(COC(C)=O)CC(C)(O)C(O)CC21 (stereo unspecified)
inactive: [16] 96 % of control | [17] 94 % of control | [18] 93 % of control

C1CCC(=[N+]2CCCC2)CC1
inactive: [19] 93 % of control | [1] 106 % of control | [20] 101 % of control | [2] 104 % of control | [21] 88 % of control | [3] 102 % of control

NC(N)=NCCCC(N=Cc1ccccc1)C(=O)O (stereo unspecified)
inactive: [19] 97 % of control | [20] 101 % of control | [21] 98 % of control

S=C(NCc1ccc(Cl)c(Cl)c1)NCc1ccc(Cl)c(Cl)c1
inactive: dose: 25.0 mg/kg/injection, schedule: Q01DX009 (ip), vehicle: Klucel (hydroxypropylcellulose) (HPC) 103 % of control | [13] 101 % of control

O=C(Cn1ccc(O)cc1=O)c1ccc(Cl)s1
inactive: [4] 111 % of control | [22] 98 % of control | [5] 90 % of control | [23] 93 % of control | [6] 91 % of control | [24] 98 % of control

O=C(O)C(CSC(c1ccccc1)(c1ccccc1)c1ccccc1)NSc1ccccc1[N+](=O)[O-] (stereo unspecified)
inactive: [7] 114 % of control | [8] 98 % of control | dose: 175.0 mg/kg/injection, schedule: Q01DX009 (ip), vehicle: Klucel (hydroxypropylcellulose) (HPC) 98 % of control | [9] 121 % of control | [10] 102 % of control | dose: 265.0 mg/kg/injection, schedule: Q01DX009 (ip), vehicle: Klucel (hydroxypropylcellulose) (HPC) 100 % of control | [11] 110 % of control | [12] 95 % of control

Cc1ccc(S(=O)(=O)NCC(=O)NCC(=O)Oc2ccc([N+](=O)[O-])cc2)cc1 (Tos-Gly-Gly-ONp)
inactive: dose: 100.0 mg/kg/injection, schedule: Q04DX003 (ip), vehicle: other 105 % of control | dose: 200.0 mg/kg/injection, schedule: Q04DX003 (ip), vehicle: other 102 % of control | dose: 400.0 mg/kg/injection, schedule: Q04DX003 (ip), vehicle: other 98 % of control

CNC(=O)C(c1ccccc1)C(O)(c1ccccc1)c1ccccc1 (stereo unspecified)
inactive: dose: 50.0 mg/kg/injection, schedule: Q01DX001 (ip), vehicle: saline 96 % of control | [25] 93 % of control | [26] 98 % of control | [27] 87 % of control

COC(=O)C(Br)c1cccc(OC)c1 (stereo unspecified)
inactive: [16] 100 % of control | dose: 100.0 mg/kg/injection, schedule: Q04DX003 (ip), vehicle: saline sonified 97 % of control | [17] 120 % of control | dose: 200.0 mg/kg/injection, schedule: Q04DX003 (ip), vehicle: saline sonified 101 % of control | [18] 105 % of control | dose: 400.0 mg/kg/injection, schedule: Q04DX003 (ip), vehicle: saline sonified 101 % of control

Cc1cc(=O)[nH]c(N(CCO)CCO)n1
inactive: [4] 92 % of control | [22] 94 % of control | [5] 100 % of control | [23] 96 % of control | [6] 100 % of control | [24] 100 % of control

Cc1ccc(S(=O)(=O)N/N=C/Cc2ccccc2)cc1
inactive: dose: 100.0 mg/kg/injection, schedule: Q04DX002 (ip), vehicle: gum acacia 100 % of control | dose: 200.0 mg/kg/injection, schedule: Q04DX002 (ip), vehicle: gum acacia 100 % of control | dose: 400.0 mg/kg/injection, schedule: Q04DX002 (ip), vehicle: gum acacia 100 % of control

O=S(=O)(NC/C=C/c1ccccc1)c1ccccc1
inactive: [14] 96 % of control | [15] 103 % of control | dose: 400.0 mg/kg/injection, schedule: Q01DX001 (ip), vehicle: Klucel (hydroxypropylcellulose) (HPC) 102 % of control

CCCCCCCCCCCCSCCSCCSCCCCCCCCCCCC
inactive: [8] 93 % of control | [10] 92 % of control | [12] 98 % of control

CCCCCCCCSCCC(=O)O
inactive: [4] 97 % of control | [22] 97 % of control | [5] 88 % of control | [23] 92 % of control | [24] 94 % of control

c1ccc2c(c1)ccc1cc3cnccc3cc12
inactive: [25] 95 % of control | [26] 103 % of control | [27] 101 % of control

COc1ccc(C)cc1NC(=O)c1cccc(F)c1
inactive: [7] 106 % of control | [9] 101 % of control | [11] 97 % of control

[N-]=[N+]=NCC(=O)NCc1cnccn1
inactive: dose: 12.5 mg/kg/injection, schedule: Q01DX009 (ip), vehicle: saline 114 % of control | dose: 25.0 mg/kg/injection, schedule: Q01DX009 (ip), vehicle: saline 105 % of control | dose: 50.0 mg/kg/injection, schedule: Q01DX009 (ip), vehicle: saline 112 % of control | [1] 102 % of control | [2] 96 % of control | [3] 96 % of control

CN1C(=O)CCC1=O
inactive: [1] 103 % of control | [2] 98 % of control | [3] 98 % of control
